Like-named read-outs stand apart in the source and are kept apart here.
Tested on: UISO-MeI-2 cells
Format: cell-based

Compound	Effect on uptake of azurin in UISO-MeI-2 cells	Effect on uptake of azurin in UISO-MeI-2 cells (20 pM)
C[C@H]1CCC/C=C/[C@@H]2C[C@H](O)C[C@H]2[C@H](O)/C=C/C(=O)O1 [Brefeldin A]	no significant effect	–
C=C1[C@@H](C)[C@H]2[C@H](Cc3ccccc3)NC(=O)[C@]23[C@H](OC(C)=O)/C=C/[C@@](C)(O)C(=O)[C@@H](C)C/C=C/[C@H]3[C@@H]1O [cytochalasin D]	significantly reduced	–
carbonyl cyanide m-chlorophrnylhydrazone [CCCP]	–	significantly reduced

— US9161989B2, “Cupredoxin derived transport agents and methods of use thereof” (priority 2004, dated 2015)
